The values that follow come from PMC7312375, “A Novel, Pan-PDE Inhibitor Exerts Anti-Fibrotic Effects in Human Lung Fibroblasts via Inhibition of TGF-β Signaling and Activation of cAMP/PKA Signaling” (International Journal of Molecular Sciences, 2020).

pIC50: −log10 of the molar value.

Test [1] addresses T1, PDE4D (Homo sapiens, UniProt Q08499).
T1 construct: purchased SignalChem
Also noted: method as in PMID 31705904. The settings on record: published previously; read-out: PDE-IC50 4D; cited from earlier work.

Test [2] deals with T2, PDE8A (Homo sapiens, UniProt O60658).
T2 construct: purchased SignalChem
T2 sequence (O60658 whole entry): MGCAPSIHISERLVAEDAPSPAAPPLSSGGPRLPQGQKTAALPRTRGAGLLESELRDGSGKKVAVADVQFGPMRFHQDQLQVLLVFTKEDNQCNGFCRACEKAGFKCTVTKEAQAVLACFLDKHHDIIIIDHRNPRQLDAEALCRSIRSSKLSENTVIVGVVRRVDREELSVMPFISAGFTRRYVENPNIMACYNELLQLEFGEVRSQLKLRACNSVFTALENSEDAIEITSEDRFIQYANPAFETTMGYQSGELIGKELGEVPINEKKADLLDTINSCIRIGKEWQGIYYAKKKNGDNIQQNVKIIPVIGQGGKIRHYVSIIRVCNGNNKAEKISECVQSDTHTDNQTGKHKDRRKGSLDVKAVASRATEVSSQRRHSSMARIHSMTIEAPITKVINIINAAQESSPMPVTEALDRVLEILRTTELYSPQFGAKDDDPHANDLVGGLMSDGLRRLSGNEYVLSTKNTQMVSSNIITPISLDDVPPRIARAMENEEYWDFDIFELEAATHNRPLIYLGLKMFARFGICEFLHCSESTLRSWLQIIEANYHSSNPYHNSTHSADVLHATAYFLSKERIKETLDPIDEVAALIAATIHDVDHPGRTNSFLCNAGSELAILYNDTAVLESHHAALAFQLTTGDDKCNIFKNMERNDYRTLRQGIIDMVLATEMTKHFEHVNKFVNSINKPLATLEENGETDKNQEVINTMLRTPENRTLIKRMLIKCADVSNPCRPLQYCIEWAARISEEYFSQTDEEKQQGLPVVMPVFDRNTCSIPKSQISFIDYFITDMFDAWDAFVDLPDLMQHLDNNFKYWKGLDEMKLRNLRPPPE
Kind of test: PDE-Glo assay, human recombinant PDE8A. The format is biochemical. The settings on record: n.a. = not active; read-out: PDE-IC50 8A. The procedure: (§1) Inhibitory activities of the investigated compounds against various subtypes of human recombinant (hr)PDEs, namely PDE1A, PDE1B, PDE1C, PDE3A, PDE3B, PDE4A, PDE4B, PDE4D, PDE7A, and PDE8A were assessed using a PDE-Glo^TM Assay Kit (Promega, Madison, WI, USA) according to the protocol provided by the manufacturer. Briefly, appropriate amounts of each enzyme (SignalChem, Richmond, B.C., Canada), diluted with PDE-Glo reaction buffer, were distributed on a 384-well plate (Thermo Scientific, Waltham, MA, USA). The investigated compounds were dissolved in DMSO, diluted with the same vehicle, and mixed with the reaction buffer at a v/v ratio of 1:5. Thereafter, 1 µL of these mixtures and 2.5 µL of the cAMP solution as a substrate were added. The final cAMP concentration was 0.05 µM. The samples were incubated for 10 min at 30 °C. […] Finally, 10 µL of PDE-Glo kinase reagent was added, and luminescence was measured using the POLARstar Omega plate reader (BMG LABTECH, Ortenberg, Germany). […] The relative activities (A, %) of all samples were calculated from the following equation: A = [(LUsample − LUblank)/(LUcontrol − LUblank)]·100%; where LUcontrol is the luminescence of a control sample in the absence of a PDE inhibitor, LUsample is a luminescence of an investigated sample in the presence of an inhibitor, and LUblank is a luminescence of a sample in the absence of enzyme (activity = 0). […]

Test [3] relates to TGF-β1-induced MRC-5 cells. Kind of test: qPCR of myofibroblast marker genes in TGF-β1-induced MRC-5. The format is cell-based, human. The settings on record: 10 µM, 24 h TGF-β1 5 ng/mL; compared to TGF-β1 alone. How it is done: Quantitative polymerase chain reaction (qPCR) was performed to assess the expression level of selected human genes: ACTA2, MYH11, SM22, COL1A1, TNC, FN1, and VCAN. MRC-5 cells were preincubated with study compounds (10 µM) for 1 h, followed by 24 h incubation with TGF-β1, and then total RNA was extracted using Total RNA Mini Kit (A&A Biotechnology, Gdynia, Poland) according to the manufacturer’s protocol. RNA concentration was measured with a BioSpectrometer® basic (Eppendorf), and equal amounts of total RNA (about 1 µg) were reverse-transcribed using the iScript™ cDNA Synthesis Kit (BioRad, Hercules, CA, USA). qPCR assays were performed using the CFX96 Touch Real-Time PCR Detection System (BioRad, Hercules, CA, USA) and SsoAdvanced^TM Universal SYBR® Green Supermix (BioRad, Hercules, CA, USA). qPCR cycling was performed with denaturation at 94 °C for 30 s, annealing at 59 °C for 30 s and an extension at 72 °C for 30 s. The relative abundance of specific mRNA transcripts was estimated based on cycle threshold (Ct) value and recalculated against the endogenous reference 18S ribosomal RNA gene (18S rRNA) using the ∆Ct method. The experiments were run three times in duplicates.

Test [4] concerns TGF-β1-induced MRC-5 cells. Nature of the test: Western blot of p-CREB. It counts as cell-based, human. The settings on record: 10 µM. The procedure: Western Blot analysis was performed according to a standard protocol. Briefly, MRC-5 cells were pre-incubated with the study compounds (10 µM) for 1 h, followed by 48 h incubation with TGF-β1 and then lysed in RIPA buffer (RIPA Lysis and Extraction Buffer, Thermo Fisher Scientific, Waltham, MA, USA) and supplemented with protease inhibitor cocktail and phosphatase inhibitor cocktail (both from Sigma Aldrich, St. Louis, MO, USA). Equal amounts of protein (30 µg) were separated using 10% SDS-polyacrylamide gels and transferred onto polyvinylidene difluoride (PVDF) membranes (Thermo Fisher Scientific, Waltham, MA, USA). […] ROD was measured according to the NIH guidelines with Fiji ImageJ Software. […]

The target in test [5] is T3, PDE3A (Homo sapiens, UniProt Q14432).
T3 construct: purchased SignalChem
T3 sequence (Q14432 whole entry): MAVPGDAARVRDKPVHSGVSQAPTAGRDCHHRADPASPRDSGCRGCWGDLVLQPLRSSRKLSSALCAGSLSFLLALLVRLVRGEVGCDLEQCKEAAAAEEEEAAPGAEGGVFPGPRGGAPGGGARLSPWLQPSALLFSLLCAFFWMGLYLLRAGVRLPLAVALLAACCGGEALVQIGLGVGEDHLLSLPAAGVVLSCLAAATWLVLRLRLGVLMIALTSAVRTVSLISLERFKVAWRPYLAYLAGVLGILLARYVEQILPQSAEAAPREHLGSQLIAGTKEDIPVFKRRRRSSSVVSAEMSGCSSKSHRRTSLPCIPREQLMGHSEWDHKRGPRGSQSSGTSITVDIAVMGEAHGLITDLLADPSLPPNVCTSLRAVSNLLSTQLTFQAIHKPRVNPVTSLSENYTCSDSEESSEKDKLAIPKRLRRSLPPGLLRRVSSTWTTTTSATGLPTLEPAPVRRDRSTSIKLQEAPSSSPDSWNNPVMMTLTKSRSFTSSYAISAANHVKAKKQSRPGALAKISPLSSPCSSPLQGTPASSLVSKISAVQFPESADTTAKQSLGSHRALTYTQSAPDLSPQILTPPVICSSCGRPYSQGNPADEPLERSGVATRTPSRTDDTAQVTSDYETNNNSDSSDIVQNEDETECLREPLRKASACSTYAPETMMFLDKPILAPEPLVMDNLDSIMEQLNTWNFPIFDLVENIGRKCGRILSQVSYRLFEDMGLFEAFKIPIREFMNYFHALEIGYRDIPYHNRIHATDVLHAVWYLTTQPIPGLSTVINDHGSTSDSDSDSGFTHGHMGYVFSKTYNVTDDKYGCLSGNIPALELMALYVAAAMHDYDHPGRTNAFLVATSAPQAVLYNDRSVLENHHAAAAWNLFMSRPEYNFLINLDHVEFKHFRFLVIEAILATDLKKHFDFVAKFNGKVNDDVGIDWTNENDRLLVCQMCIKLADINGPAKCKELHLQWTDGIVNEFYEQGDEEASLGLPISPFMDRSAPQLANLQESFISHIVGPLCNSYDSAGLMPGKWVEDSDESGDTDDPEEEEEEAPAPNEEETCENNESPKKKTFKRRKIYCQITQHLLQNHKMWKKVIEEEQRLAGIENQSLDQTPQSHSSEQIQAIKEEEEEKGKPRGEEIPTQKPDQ
Kind of test: PDE-Glo assay, human recombinant PDE3A. As to conditions: n.a. = not active; read-out: PDE-IC50 3A. It counts as biochemical. The procedure:
as §1

Test [6] deals with T4, PDE4B (Homo sapiens, UniProt Q07343).
T4 construct: purchased SignalChem
T4 sequence (Q07343 whole entry): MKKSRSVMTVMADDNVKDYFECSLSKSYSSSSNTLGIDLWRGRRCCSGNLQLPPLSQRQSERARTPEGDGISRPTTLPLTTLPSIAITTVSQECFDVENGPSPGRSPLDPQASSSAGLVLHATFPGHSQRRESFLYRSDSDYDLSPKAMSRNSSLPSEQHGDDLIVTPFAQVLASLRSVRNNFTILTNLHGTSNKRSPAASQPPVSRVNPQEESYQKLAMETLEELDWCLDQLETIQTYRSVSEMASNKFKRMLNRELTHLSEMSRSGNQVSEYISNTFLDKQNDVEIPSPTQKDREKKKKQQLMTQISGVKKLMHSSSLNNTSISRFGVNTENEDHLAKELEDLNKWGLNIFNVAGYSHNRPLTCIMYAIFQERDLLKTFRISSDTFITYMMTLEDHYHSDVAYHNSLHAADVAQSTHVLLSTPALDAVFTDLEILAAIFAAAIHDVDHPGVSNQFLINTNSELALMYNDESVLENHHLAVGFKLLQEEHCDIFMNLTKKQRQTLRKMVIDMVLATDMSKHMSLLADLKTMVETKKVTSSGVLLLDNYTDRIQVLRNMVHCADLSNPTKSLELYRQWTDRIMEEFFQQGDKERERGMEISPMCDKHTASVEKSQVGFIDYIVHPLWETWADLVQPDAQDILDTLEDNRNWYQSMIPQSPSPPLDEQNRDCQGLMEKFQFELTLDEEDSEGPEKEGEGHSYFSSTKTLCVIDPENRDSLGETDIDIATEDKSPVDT
As to conditions: published previously; read-out: PDE-IC50 4B; cited from earlier work.

Test [7] has as its target T5, PDE1B (Homo sapiens, UniProt Q01064).
T5 construct: purchased SignalChem
Nature of the test: PDE-Glo assay, human recombinant PDE1B. As to conditions: n.a. = not active; read-out: PDE-IC50 1B. The format is biochemical. How it is done:
as §1

T5 sequence (Q01064 whole entry): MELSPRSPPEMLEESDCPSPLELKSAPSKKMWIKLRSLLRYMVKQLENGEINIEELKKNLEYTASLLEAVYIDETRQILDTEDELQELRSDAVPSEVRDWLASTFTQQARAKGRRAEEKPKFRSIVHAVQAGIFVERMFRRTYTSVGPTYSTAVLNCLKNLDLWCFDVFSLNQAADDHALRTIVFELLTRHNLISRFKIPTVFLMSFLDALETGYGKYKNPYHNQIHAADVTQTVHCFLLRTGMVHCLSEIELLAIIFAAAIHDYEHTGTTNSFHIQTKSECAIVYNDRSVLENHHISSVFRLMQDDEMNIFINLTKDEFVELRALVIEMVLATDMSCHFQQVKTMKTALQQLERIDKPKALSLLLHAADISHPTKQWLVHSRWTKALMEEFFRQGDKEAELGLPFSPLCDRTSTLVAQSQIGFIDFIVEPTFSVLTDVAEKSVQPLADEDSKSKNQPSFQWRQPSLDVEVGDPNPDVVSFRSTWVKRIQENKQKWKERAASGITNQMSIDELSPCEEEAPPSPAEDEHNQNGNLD
T1 sequence (Q08499 whole entry): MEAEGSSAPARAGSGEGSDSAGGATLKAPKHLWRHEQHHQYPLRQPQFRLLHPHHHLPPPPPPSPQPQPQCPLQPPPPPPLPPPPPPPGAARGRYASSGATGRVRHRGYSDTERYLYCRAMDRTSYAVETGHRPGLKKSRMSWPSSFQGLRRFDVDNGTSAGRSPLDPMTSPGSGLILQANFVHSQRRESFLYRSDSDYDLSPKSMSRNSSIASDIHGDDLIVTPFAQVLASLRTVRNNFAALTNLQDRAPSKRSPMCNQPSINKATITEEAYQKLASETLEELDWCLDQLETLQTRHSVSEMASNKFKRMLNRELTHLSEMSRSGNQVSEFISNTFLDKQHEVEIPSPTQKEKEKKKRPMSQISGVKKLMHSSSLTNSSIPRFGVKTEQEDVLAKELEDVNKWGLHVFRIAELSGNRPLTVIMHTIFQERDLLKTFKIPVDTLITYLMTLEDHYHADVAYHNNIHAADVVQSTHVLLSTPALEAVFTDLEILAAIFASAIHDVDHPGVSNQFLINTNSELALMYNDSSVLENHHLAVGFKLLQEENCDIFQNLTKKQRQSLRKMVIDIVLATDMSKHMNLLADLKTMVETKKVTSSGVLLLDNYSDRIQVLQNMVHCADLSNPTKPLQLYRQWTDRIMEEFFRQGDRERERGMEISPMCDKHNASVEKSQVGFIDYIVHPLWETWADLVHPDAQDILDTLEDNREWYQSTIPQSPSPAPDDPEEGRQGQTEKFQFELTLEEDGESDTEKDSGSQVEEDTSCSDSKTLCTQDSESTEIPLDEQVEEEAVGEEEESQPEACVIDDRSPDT

One may read the pIC50 as the IC50 on a negative log10 scale, so that one unit is a factor of ten. Consider `CCCCOc1nc2c(c(=O)n(C)c(=O)n2C)n1CCCC(=O)Nc1cc(C(C)(C)C)ccc1O` [Compound 145, 4-(8-butoxy-1,3-dimethyl-2,6-dioxo-1,2,3,6-tetrahydro-7H-purin-7-yl)-N-(5-(tert-butyl)-2-hydroxyphenyl)butanamide], for which the negative-log IC50 (pIC50) in test [1] is 4.86. Moreover, in test [2], the pIC50 is 4.14. In test [3], the “decrease in TGF-β1-induced expression of ACTA2” value is listed as “two-fold”, the “decrease in TGF-β1-induced expression of COL1A1” value is listed as “four-fold”, the “decrease in TGF-β1-induced expression of MYH11” value is “five-fold” and the “decrease in TGF-β1-induced expression of SM22” value was “nine-fold”. Moreover, the “decrease in TGF-β1-induced expression of TNC” value in test [3] was “five-fold”. Further, the “CREB phosphorylation (immunoblot)” value in test [4] is reported as “increased CREB phosphorylation”.
On to `Cn1c(=O)c2c(nc(NCc3ccco3)n2CCCC(=O)NN=Cc2ccc(O)cc2O)n(C)c1=O` [Compound 832, N′-(2,4-dihydroxybenzylidene)-4-(8-((furan-2-ylmethyl)amino)-1,3-dimethyl-2,6-dioxo-1,2,3,6-tetrahydro-7H-purin-7-yl)butanehydrazide], for which the pIC50 was 6.90 in test [5], 5.36 in test [6] and 7.40 in test [7].
